Source: patent US20230031406A1, “COMPOUNDS AND COMPOSITIONS FOR TREATING CONDITIONS ASSOCIATED WITH NLRP ACTIVITY” (Novartis AG, priority 2018, published 2023)
Read-outs that look alike come from different tables or passages of the source.

Tested on: PMA-differentiated THP-1 cells
Experiment: hTHP-1 assay containing 10% fetal bovine serum (IL-1β production, Tables B5 and B6)
Format: cell-based, human
Details: read-out: hTHP-1 IC50 in 10% FBS, hTHP-1 assay containing 10% fetal bovine serum, Table B5
Experimental: The following protocol is suitable for testing the activity of the compounds disclosed herein. Procedure 1: IL-1β Production in PMA-Differentiated THP-1 Cells Stimulated with Gramicidin.
THP-1 cells were purchased from the American Type Culture Collection and sub-cultured according to instructions from the supplier. Cells were cultured in complete RPMI 1640 (containing 10% heat inactivated FBS, penicillin (100 units/ml) and streptomycin (100 μg/ml)), and maintained in log phase prior to experimental setup. Prior to the experiment, compounds were dissolved in dimethyl sulfoxide (DMSO) to generate a 30 mM stock. The compound stock was first pre-diluted in DMSO to 3, 0.34, 0.042 and 0.0083 mM intermediate concentrations and subsequently spotted using Echo550 liquid handler into an empty 384-well assay plate to achieve desired final concentration (e.g. 100, 33, 11, 3.7, 1.2, 0.41, 0.14, 0.046, 0.015, 0.0051, 0.0017 μM). DMSO was backfilled in the plate to achieve a final DMSO assay concentration of 0.37%. The plate was then sealed and stored at room temperature until required.
THP-1 cells were treated with PMA (Phorbol 12-myristate 13-acetate) (20 ng/ml) for 16-18 hours. On the day of the experiment the media was removed and adherent cells were detached with trypsin for 5 minutes. […] The cells were plated in the 384-well assay plate containing the spotted compounds at a density of 50,000 cells/well (final assay volume 50 μl). Cells were incubated with compounds for 1 hour and then stimulated with gramicidin (5 μM) (Enzo) for 2 hours. Plates were then centrifuged at 340 g for 5 min. Cell free supernatant (40 μL) was collected using a 96—CHannel PlateMaster (Gilson) and the production of IL-1β was evaluated by HTRF (cisbio). The plates were incubated for 18 h at 4° C. and read using the preset HTRF program (donor emission at 620 nm, acceptor emission at 668 nm) of the SpectraMax i3x spectrophotometer (Molecular Devices, software SoftMax 6). A vehicle only control and a dose titration of CRID3 (100-0.0017 μM) were run concurrently with each experiment.
Procedure 2: IL-1β Production in PMA-Differentiated THP-1 Cells Stimulated with Gramicidin.
THP-1 cells were purchased from the American Type Culture Collection and sub-cultured according to instructions from the supplier. Prior to experiments, cells were cultured in complete RPMI 1640 (containing 10% heat inactivated FBS, penicillin (100 units/ml) and streptomycin (100 μg/ml)), and maintained in log phase prior to experimental setup. Prior to the experiment THP-1 were treated with PMA (Phorbol 12-myristate 13-acetate) (20 ng/ml) for 16-18 hours. Compounds were dissolved in dimethyl sulfoxide (DMSO) to generate a 30mM stock. On the day of the experiment the media was removed and adherent cells were detached with trypsin for 5 minutes. […] The cells were plated in a 384-well plate at a density of 50,000 cells/well (final assay volume […]). Compounds were first dissolved in assay medium to obtain a 5× top concentration of 500 μM. 10 step dilutions (1:3) were then undertaken in assay medium containing 1.67% DMSO. 5× compound solutions were added to the culture medium to achieve desired final concentration (e.g. 100, 33, 11, 3.7, 1.2, 0.41, 0.14, 0.046, 0.015, 0.0051, 0.0017 μM). Final DMSO concentration was at 0.37%. Cells were incubated with compounds for 1 hour and then stimulated with gramicidin (5 μM) (Enzo) for 2 hours. Plates were then centrifuged at 340 g for 5 min. Cell free supernatant (40 μL) was collected using a 96—CHannel PlateMaster (Gilson) and the production of IL-1β was evaluated by HTRF (cisbio). A vehicle only control and a dose titration of CRID3 (100-0.0017 μM) were run concurrently with each experiment.
Tables B1, B2, B3, and B4 show the biological activity of compounds in hTHP-1 assay containing 2% fetal bovine serum. […] Key: <0.008 μM=“++++++”; ≥0.008 and <0.04 μM=“+++++”; >0.04 and <0.2 μM=“++++”; ≥0.2 and <1 μM=“+++”; ≥1 and <5 μM=“++”; ≥5 and <30 μM=“+”. […]

Q: With `CCn1cc(F)c(S(N)(=O)=NC(=O)Nc2c(C)c(C(F)(F)F)nc3c2CC(C)C3)n1` (single isomer, unassigned) [Compound 1101d, (R, R) or (R, S)-N′-((3,6-dimethyl-2-(trifluoromethyl)-6,7-dihydro-5H-cyclopenta[b]pyridin-4-yl)carbamoyl)-1-ethyl-4-fluoro-1H-pyrazole-3-sulfonimidamide] as the compound, how does the IC50 (listed as 824) read?
A: Its IC50 is 0.2 to 1 µM.

Q: For `CCn1cc(F)c(S(N)(=O)=NC(=O)Nc2c(C)c(C(F)(F)F)nc3c2CC(C)C3)n1` (single isomer, unassigned) [Compound 1101e, (R, S) or (R, R)-N′-((3,6-dimethyl-2-(trifluoromethyl)-6,7-dihydro-5H-cyclopenta[b]pyridin-4-yl)carbamoyl)-1-ethyl-4-fluoro-1H-pyrazole-3-sulfonimidamide], which IC50 (listed as 825) is on record?
A: Its IC50 is 0.008 to 0.04 µM.

Q: Which IC50 (listed as 826) does the source give for `CC(C)n1cc(F)c(S(N)(=O)=NC(=O)Nc2c3c(nc(C(F)(F)F)c2C2CC2)CCC3)n1` (single isomer, unassigned) [Compound 1104a, (R) or (S)-N′-((3-cyclopropyl-2-(trifluoromethyl)-6,7-dihydro-5H-cyclopenta[b]pyridin-4-yl)carbamoyl)-4-fluoro-1-isopropyl-1H-pyrazole-3-sulfonimidamide] here?
A: Its IC50 is 0.04 to 0.2 µM.

Q: For `CC(C)n1cc(F)c(S(N)(=O)=NC(=O)Nc2c3c(nc(C(F)(F)F)c2C2CC2)CCC3)n1` (single isomer, unassigned) [Compound 1104b, (S) or (R)-N′-((3-cyclopropyl-2-(trifluoromethyl)-6,7-dihydro-5H-cyclopenta[b]pyridin-4-yl)carbamoyl)-4-fluoro-1-isopropyl-1H-pyrazole-3-sulfonimidamide], which IC50 (listed as 827) is on record?
A: Its IC50 is 1 to 5 µM.

Q: How did the IC50 (listed as 834) turn out when `CC(C)(O)c1csc(S(N)(=O)=NC(=O)Nc2c3c(nc(C(F)(F)F)c2C2CC2)CCC3)c1F` (single isomer, unassigned) [Compound 1105a, (R) or (S)-N′-((3-cyclopropyl-2-(trifluoromethyl)-6,7-dihydro-5H-cyclopenta[b]pyridin-4-yl)carbamoyl)-3-fluoro-4-(2-hydroxypropan-2-yl)thiophene-2-sulfonimidamide] was run?
A: Its IC50 is 0.04 to 0.2 µM.

Q: `CC(C)(O)c1csc(S(N)(=O)=NC(=O)Nc2c3c(nc(C(F)(F)F)c2C2CC2)CCC3)c1F` (single isomer, unassigned) [Compound 1105b, (S) or (R)-N′-((3-cyclopropyl-2-(trifluoromethyl)-6,7-dihydro-5H-cyclopenta[b]pyridin-4-yl)carbamoyl)-3-fluoro-4-(2-hydroxypropan-2-yl)thiophene-2-sulfonimidamide] was tested. Which IC50 (listed as 835) did it give?
A: The IC50 was 0.2 to 1 µM.

Q: `CC(C)(O)c1csc(S(N)(=O)=NC(=O)Nc2c3c(nc(C4CC4)c2C2CC2)CCC3)c1F` (single isomer, unassigned) [Compound 1106a, (R) or (S)-N′-((2,3-dicyclopropyl-6,7-dihydro-5H-cyclopenta[b]pyridin-4-yl)carbamoyl)-3-fluoro-4-(2-hydroxypropan-2-yl)thiophene-2-sulfonimidamide] was tested. Which IC50 (listed as 830) did it give?
A: Its IC50 is 0.04 to 0.2 µM.

Q: For `CC(C)(O)c1csc(S(N)(=O)=NC(=O)Nc2c3c(nc(C4CC4)c2C2CC2)CCC3)c1F` (single isomer, unassigned) [Compound 1106b, (S) or (R)-N′-((2,3-dicyclopropyl-6,7-dihydro-5H-cyclopenta[b]pyridin-4-yl)carbamoyl)-3-fluoro-4-(2-hydroxypropan-2-yl)thiophene-2-sulfonimidamide], which IC50 (listed as 831) is on record?
A: Its IC50 is 1 to 5 µM.

Q: With `CC(C)(O)c1csc(S(N)(=O)=NC(=O)Nc2c3c(nc4c2CCC4)CCC3)c1F` (single isomer, unassigned) [Compound 1107a, (R) or (S)-3-fluoro-N′-((1,2,3,5,6,7-hexahydrodicyclopenta[b,e]pyridin-8-yl)carbamoyl)-4-(2-hydroxypropan-2-yl)thiophene-2-sulfonimidamide] as the compound, how does the IC50 (listed as 838) read?
A: The IC50 was 0.04 to 0.2 µM.

Q: `CC(C)(O)c1csc(S(N)(=O)=NC(=O)Nc2c3c(nc4c2CCC4)CCC3)c1F` (single isomer, unassigned) [Compound 1107b, (S) or (R)-3-fluoro-N′-((1,2,3,5,6,7-hexahydrodicyclopenta[b,e]pyridin-8-yl)carbamoyl)-4-(2-hydroxypropan-2-yl)thiophene-2-sulfonimidamide] was tested. Which IC50 (listed as 839) did it give?
A: The IC50 was 1 to 5 µM.

Q: With `Cc1c(C(F)(F)F)nc2c(c1NC(=O)N=S(N)(=O)c1scc(C(C)(C)O)c1F)CCC2` (single isomer, unassigned) [Compound 1108a, (R) or (S)-3-fluoro-4-(2-hydroxypropan-2-yl)-N′-((3-methyl-2-(trifluoromethyl)-6,7-dihydro-5H-cyclopenta[b]pyridin-4-yl)carbamoyl)thiophene-2-sulfonimidamide] as the compound, how does the IC50 (listed as 840) read?
A: The IC50 was 0.04 to 0.2 µM.

Q: For `Cc1c(C(F)(F)F)nc2c(c1NC(=O)N=S(N)(=O)c1scc(C(C)(C)O)c1F)CCC2` (single isomer, unassigned) [Compound 1108b, (S) or (R)-3-fluoro-4-(2-hydroxypropan-2-yl)-N′-((3-methyl-2-(trifluoromethyl)-6,7-dihydro-5H-cyclopenta[b]pyridin-4-yl)carbamoyl)thiophene-2-sulfonimidamide], which IC50 (listed as 841) is on record?
A: The IC50 was 1 to 5 µM.

Q: `C[C@@H]1CCc2c1nc1c(c2NC(=O)N=S(N)(=O)c2scc(C(C)(C)O)c2F)CCC1` (single isomer, unassigned) [Compound 1109a, (R) or (S)-3-fluoro-4-(2-hydroxypropan-2-yl)-N′-(((R)-3-methyl-1,2,3,5,6,7-hexahydrodicyclopenta [b,e]pyridin-8-yl)carbamoyl) thiophene-2-sulfonimidamide] was tested. Which IC50 (listed as 842) did it give?
A: The IC50 was 0.008 to 0.04 µM.

Q: `C[C@@H]1CCc2c1nc1c(c2NC(=O)N=S(N)(=O)c2scc(C(C)(C)O)c2F)CCC1` (single isomer, unassigned) [Compound 1109b, (S) or (R)-3-fluoro-4-(2-hydroxypropan-2-yl)-N′-(((R)-3-methyl-1,2,3,5,6,7-hexahydrodicyclopenta [b,e]pyridin-8-yl)-carbamoyl) thiophene-2-sulfonimidamide] was tested. Which IC50 (listed as 843) did it give?
A: The IC50 was 0.2 to 1 µM.
